Experimental data from patent US6531148B1, “Therapeutic agents” (Takara Shuzo Co., Ltd., priority 1998, dated 2003).
“Also recorded” adds a separate entry of the source.

Assays:
[1] = tested on: HL-60 cells; assay: Apoptosis induction test; type: cell-based
Description: (1) HL-60 cells were cultured at 37° C. in RPMI 1640 medium (Bio Whittaker) containing 10% of fetal bovine serum (JRH), which had been treated at 56° C. for 30 minutes, and suspended in RPMI 1640 medium at a concentration of 2.5×10^5 cells/4.5 ml.
500 μl of at 125 μM, 250 μM, 500 μM, 1 mM, 2 mM or 4 mM aqueous DGE solution was added to 4.5 ml of the suspension. The mixtures were incubated at 37° C. for 24 hours in the presence of 5% CO2.
The cultured cells were examined under an optical microscope.
Measurement of apoptotic cells using FACScan as described in Saibo Kogaku, Bessatsu (Cell Technology, Suppl.) Jikken Protocol Series: Apoptosis Jikken Protocol (Experimental Protocol Series: Experimental Protocols for Apoptosis) (Shujun-sha) pp. 129-130 and analysis of DNA fragmentation as described in Bio Manual UP Series: Saishin Apoptosis Jikken-ho (Bio Manual UP Series: Current Experimental Methods for Apoptosis) (Yodo-sha) pp. 61-63 were carried out using cells cultured for 24 or 48 hours in the same manner as that described above.
(2) A portion of the cells cultured for 24 hours as described in Example 2-(1) was stained with 0.4% Trypan Blue and examined under an optical microscope. The number of viable cells which were not stained and the number of dead cells which were stained blue were counted. The concentration of DGE that results in a viability of 50% [Viability50 (μM)] was determined to be 81.7 μM.

[2] = tested on: NO production induced by LPS and IFN-γ in RAW264.7 cells; assay: NO production inhibition test; type: cell-based; details: for inhibition of NO production induced by LPS and IFN-γ: NO2− in the medium, Griess' reagent
Description: (1) RAW264.7 cells (ATCC TIB 71) were suspended in Dulbecco's modified Eagle's medium (Bio Whittaker, 12-917F) without phenol red containing 10% fetal bovine serum (Gibco) and 2 mM L-glutamine (Life Technologies Oriental, 25030-149) at a concentration of 3×10^5 cells/ml. 500 μl of the suspension was added to each well of a 48-well microtiter plate and the plate was incubated at 37° C. for 12 hours in the presence of 5% CO2. 10 μl of an aqueous solution containing 25 μg/ml lipopolysaccharide (LPS, Sigma, L-2012) and 500 U/ml interferon-γ (IFN-γ, sold by Cosmobio, GZM-MG-IFN), and 10 μl of the aqueous DGE solution at 250 or 500 μM were added to the well. The plate was incubated for additional 12 hours. The concentration of NO2^− produced by oxidation of NO in the medium was then measured. As control groups, a group to which LPS or IFN-γ was not added and a group to which DGE was not added were provided.
(§1) After cultivation, 100 μl of 4% Griess' reagent (Sigma, G4410) was added to 100 μl of the medium, and the mixture was allowed to stand for 15 minutes at room temperature. The absorbance at 490 nm was then measured. NO2^− concentration in the medium was calculated with reference to a calibration curve prepared by using NaNO2 at a given concentration dissolved in the same medium as that described above. All of the measurements were carried out in triplicate.
(2) RAW264.7 cells were suspended in Dulbecco's modified Eagle's medium without phenol red containing 10% fetal bovine serum and 2 mM L-glutamine at a concentration of 3×10^5 cells/ml. 500 μl of the suspension was placed in each well of a 48-well microtiter plate. […] The concentration of NO2^− produced by oxidation of NO in the medium was measured. […]
as §1, with “reagent” for “reagent (Sigma, G4410)”, “culture supernatant,” for “medium,”, “above.” for “above. All of the measurements were carried out in triplicate.”
RAW264.7 cells were suspended in Dulbecco's modified Eagle's medium without phenol red containing 10% fetal bovine serum and 2 mM L-glutamine at a concentration of 3×10^5 cells/ml. […] The concentration of NO2^− produced by oxidation of NO in the medium was then measured. […]
as §1, with “above.” for “above. All of the measurements were carried out in triplicate.”

`O=C1C=CC(CO)OC1O` [DGE, L-glycero-1,5-epoxy-1αβ,6-dihydroxy-cis-hex-3-en-2-one] was tested, and the “antiproliferation activity against tumor cells due to the apoptosis-inducing activity” value [1] was “exhibited an antiproliferation activity against tumor cells”, the DNA fragmentation ([1]; 24 or 48 hours, DGE at 50 or 100 μM) was “DNA fragmentation was observed” and the “final concentration at which apoptotic cells were observed” value ([1]; 24 or 48 hours, FACScan) was ≥ 50 µM. The “final concentration at which condensation of nuclei, shrinking of cells and formation of apoptotic bodies were observed” value ([1]; 24 hours, optical microscope) was ≥ 50 µM, the IC50 ([1]; Homo sapiens, 24 hours, Trypan Blue, read-out: Viability50, concentration that results in a viability of 50%) was 81.7 µM and the “inhibition of NO production, 5 hours pre-culture with DGE compared with 0.5 hour” value ([2]; DGE added before LPS and IFN-γ) was “stronger inhibition of NO production”. For the same molecule, the “inhibition of NO production induced by LPS and IFN-γ” value [2] was “dose-dependently inhibited NO production; also recorded: exhibited an activity of inhibiting NO production”.
In the case of “5-L-glutathion-S-yl-2-hydroxy-3,7-dioxabicyclo[2.2.2]octan-1-ol [DGE-GSH]”, the “NO2− concentration in the medium” value ([2]; LPS and IFN-γ, 10 μl of 1 mM DGE-GSH per 500 μl well, 16 hours, control 12.1 μM, no addition 4.6 μM) is reported as 9.4 µM.
With `O=C1C=CC(CO)OC1O` [κ-DGE, D-glycero-1,5-epoxy-1αβ,6-dihydroxy-cis-hex-3-en-2-one] the “antiproliferation activity against tumor cells due to the apoptosis-inducing activity” value [1] was “exhibited a similar activity” and the “inhibition of NO production induced by LPS and IFN-γ” value [2] was “exhibited a similar activity”.
